Measured values taken from publication PMC6010127, “Sulfonamide inhibition studies of two β-carbonic anhydrases from the ascomycete fungus Sordaria macrospora, CAS1 and CAS2” (Journal of Enzyme Inhibition and Medicinal Chemistry, 2018).

Key:
CAS2 [1] = target: T1, CAS2 (Sordaria macrospora, UniProt C1L336); test: stopped-flow CO2 hydration assay; format: biochemical; details: read-out: KI^a (nM) / CAS2^c / β
T1 construct: recombinant, obtained in-house
T1 sequence (C1L336 54-284): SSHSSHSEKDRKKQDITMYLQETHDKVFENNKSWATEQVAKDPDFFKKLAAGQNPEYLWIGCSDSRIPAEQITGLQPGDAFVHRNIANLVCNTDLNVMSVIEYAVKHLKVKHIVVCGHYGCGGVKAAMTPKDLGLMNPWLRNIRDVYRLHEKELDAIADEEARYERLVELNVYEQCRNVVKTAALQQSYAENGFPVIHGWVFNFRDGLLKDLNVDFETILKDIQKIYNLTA

CAS1 [2] = target: T2, CAS1 (Sordaria macrospora, UniProt F7VW42); test: biochemical; design: stopped-flow CO2 hydration assay, phenol red 557 nm, pH 8.3, 15 min preincubation; KI by Cheng-Prusoff; details: read-out: KI^a (nM) / CAS1^c / β
T2 construct: gene SMAC_03420; recombinant, obtained in-house
T2 sequence (F7VW42 1-234): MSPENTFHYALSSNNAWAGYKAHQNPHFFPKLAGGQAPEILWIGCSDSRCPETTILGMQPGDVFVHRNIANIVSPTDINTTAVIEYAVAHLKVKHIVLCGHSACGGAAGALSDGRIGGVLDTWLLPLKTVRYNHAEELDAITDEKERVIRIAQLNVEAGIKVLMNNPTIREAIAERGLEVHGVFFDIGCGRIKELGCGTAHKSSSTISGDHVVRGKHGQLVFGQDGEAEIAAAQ
Method: (§1) An Applied Photophysics stopped-flow instrument has been used for assaying the CA catalysed CO2 hydration activity. Phenol red (at a concentration of 0.2 mM) has been used as indicator, working at the absorbance maximum of 557 nm, with 20 mM TRIS (pH 8.3) as buffer, and 20 mM Na2SO4 (for maintaining constant the ionic strength), following the initial rates of the CA-catalysed CO2 hydration reaction for a period of 10–100 s. The CO2 concentrations ranged from 1.7 to 17 mM for the determination of the kinetic parameters and inhibition constants. For each inhibitor at least six traces of the initial 5–10% of the reaction have been used for determining the initial velocity. The uncatalysed rates were determined in the same manner and subtracted from the total observed rates. Stock solutions of inhibitor (0.1 mM) were prepared in distilled-deionized water and dilutions up to 0.01 nM were done thereafter with the assay buffer. Inhibitor and enzyme solutions were preincubated together for 15 min at room temperature prior to assay, in order to allow for the formation of the E–I complex. The inhibition constants were obtained by non-linear least-squares methods using PRISM 3 and the Cheng–Prusoff equation, as reported earlier, and represent the mean from at least three different determinations. All CA isofoms were recombinant ones obtained in-house as reported earlier[2]^,[9].

CAS2 [3] = target: T1, CAS2; test: biochemical; design: stopped-flow CO2 hydration assay, phenol red 557 nm, pH 8.3, 15 min preincubation; KI by Cheng-Prusoff
Method: as §1, with “For each inhibitor at least six traces of the initial 5–10% of the reaction have been used for determining the initial velocity.” left out

CAS1 [4] = target: T2, CAS1; test: stopped-flow CO2 hydration assay; format: biochemical
[5] = read-out: KI^a (nM) / CAS1^c / β
[6] = read-out: KI^a (nM) / CAS2^c / β, inhibitor

Row | SMILES | Ki (CAS2 [1]) | Ki (CAS1 [2]) | Ki (CAS2 [3]) | other results
1 | NS(=O)(=O)c1ccc(S(=O)(=O)Nc2cccc3c(Cl)c[nH]c23)cc1 [IND, indisulam] | 216 nM | 4240 nM |  | 
2 | NS(=O)(=O)c1cc(Cl)c(Cl)c(S(N)(=O)=O)c1 [DCP] |  | 1220 nM | 5790 nM | 
3 | CC1(C)O[C@@H]2[C@@H](CO[C@@]3(COS(N)(=O)=O)OC(C)(C)O[C@@H]23)O1 [TPM, topiramate] | 673 nM |  |  | Ki (CAS1 [4]; [5]): 414 nM
4 | NS(=O)(=O)c1ccc(N2CCCCS2(=O)=O)cc1 [SLT, sulthiame] | 496 nM | 3210 nM |  | 
5 | Cc1ccc(S(N)(=O)=O)cc1 [compound 4] |  |  | 6900 nM | 
6 | CCN1CCCC1CNC(=O)c1cc(S(N)(=O)=O)ccc1OC (stereo not shown) [SLP, sulpiride] | 670 nM | 1720 nM |  | 
7 | Nc1ccc(S(N)(=O)=O)cc1 [compound 2, sulfanilamide] |  |  |  | Ki (CAS1 [4]): 144 nM
8 | NS(=O)(=O)c1ccc(CO)cc1 [compound 16, 4-hydroxymethyl-benzenesulfonamide] | 92.5 nM | 4520 nM |  | 
9 | Nc1ccc(S(N)(=O)=O)cc1Cl [compound 8, 3-chlorosulfanilamide] |  |  |  | Ki (CAS1 [4]; [5]): 79.6 nM
10 | Cc1onc(-c2ccccc2)c1-c1ccc(S(N)(=O)=O)cc1 [VLX] |  | 4430 nM | 3730 nM | 
11 | Nc1ccc(S(N)(=O)=O)cc1F [compound 7, 3-fluorosulfanilamide] |  |  |  | Ki (CAS1 [4]; [5]): 43.2 nM
12 | Nc1ccc(S(N)(=O)=O)cc1Br [compound 9, bromosubstituted derivative 9] |  |  |  | Ki (CAS1 [4]; pH 8.3, 20 mM TRIS, 20 mM Na2SO4, CO2 1.7-17 mM, 15 min preincubation at room temperature, read-out: KI^a (nM) / CAS1^c / β): 580 nM
13 | Nc1ccc(S(N)(=O)=O)cc1Cl [compound 8] |  |  | 9120 nM | 
14 | Cc1ccc(S(N)(=O)=O)cc1 [compound 4, tosylamide] |  |  |  | Ki (CAS1 [4]; [5]): 47.1 nM
15 | Nc1ccc(S(N)(=O)=O)cc1Br [compound 9] |  |  |  | Ki (CAS2 [3]; [6]): 12000 nM
16 | CCN[C@H]1CN(CCCOC)S(=O)(=O)c2sc(S(N)(=O)=O)cc21 [BRZ, brinzolamide] | 739 nM |  |  | Ki (CAS1 [4]; [5]): 451 nM
17 | NS(=O)(=O)c1cc2c(cc1Cl)NCNS2(=O)=O [HCT] |  | 3350 nM | 6680 nM | 
18 | Cc1ccc(-c2cc(C(F)(F)F)nn2-c2ccc(S(N)(=O)=O)cc2)cc1 [CLX, celecoxib] | 857 nM | 2510 nM |  | 
19 | NS(=O)(=O)c1nnc(NS(=O)(=O)c2ccccc2)s1 [BZA, benzolamide] | 410 nM | 2110 nM |  | 
20 | O=C1NS(=O)(=O)c2ccccc21 [SAC] |  | 5280 nM | 7070 nM | 
21 | Nc1nnc(S(N)(=O)=O)s1 [compound 13, 5-amino-1,3,4-thiadiazole-2-sulfonamide] | 48.1 nM | 8650 nM |  | 
22 | Nc1ccc(S(N)(=O)=O)cc1F [compound 7] |  |  | 7360 nM | 
23 | NS(=O)(=O)Cc1noc2ccccc12 [ZNS] |  | 1820 nM | 1890 nM | 
24 | CC(=O)N=c1sc(S(N)(=O)=O)nn1C [MZA, methazolamide] |  |  |  | Ki (CAS1 [4]; [5]): 421 nM
25 | Cn1nc(S(N)(=O)=O)sc1=N [compound 14] |  |  |  | Ki (CAS1 [2]; inhibitor): 7210 nM; Ki (CAS2 [3]; [6]): 280 nM
